Where two headings read alike, the source gives them in different places.
What was measured:
M9 ENL1 cell line = experiment: Anti-leukemic activity, Annexin V/7-AAD flow cytometry; assay type: cell-based; conditions: M9-ENL1, 24 h, 24 h of drug exposure; read-out: M9ENL1 (EC50)
Outline: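 Cells were exposed to drug for 24 h. Apoptotic populations were measured by flow cytometry with Annexin V/7-AAD labelling. Primary AML cells were from patients.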

786-0 = experiment: NCI 60 growth inhibition; assay type: cell-based, human; conditions: Homo sapiens; 786-0, Renal Cancer, Table 2
Method: (§1) The above triazole derivatives of melampomagnolide B were evaluated for growth inhibitory properties against an NCI panel of 60 human cancer cell lines derived from nine human cancer cell types, grouped into disease sub-panels that represent leukemia, lung, colon, central nervous system (CNS), melanoma, renal, ovary, breast, and prostate cancer cells. Growth inhibitory (GI50) effects were measured as a function of the variation of optical density as a percentage of control.

A498 = experiment: NCI 60 growth inhibition; assay type: cell-based, human; conditions: Homo sapiens; A498, Renal Cancer, Table 2
Method: as §1

A549/ATCC = experiment: NCI 60 growth inhibition; assay type: cell-based, human; conditions: Homo sapiens, Non-Small Cell Lung Cancer, Table 2
Method: as §1

ACHN = experiment: NCI 60 growth inhibition; assay type: cell-based, human; conditions: Homo sapiens, Renal Cancer, Table 2
Method: as §1

BT-549 = experiment: NCI 60 growth inhibition; assay type: cell-based, human; conditions: Homo sapiens; BT-549, Breast Cancer, Table 2
Method: as §1

CAKI-1 = experiment: NCI 60 growth inhibition; assay type: cell-based, human; conditions: Homo sapiens; CAKI-1, Renal Cancer, Table 2
Method: as §1

COLO 205 = experiment: NCI 60 growth inhibition; assay type: cell-based, human; conditions: Homo sapiens; COLO 205, Colon Cancer, Table 2
Method: as §1

DU-145 = experiment: NCI 60 growth inhibition; assay type: cell-based, human; conditions: Homo sapiens; DU-145, Prostate Cancer, Table 2
Method: as §1

EKVX = experiment: NCI 60 growth inhibition; assay type: cell-based, human; conditions: Homo sapiens, Non-Small Cell Lung Cancer, Table 2
Method: as §1

HL-60(TB) = experiment: NCI 60 growth inhibition; assay type: cell-based, human; conditions: Homo sapiens; HL-60(TB), Leukemia, Table 2
Method: as §1

HOP-62 = experiment: NCI 60 growth inhibition; assay type: cell-based, human; conditions: Homo sapiens; HOP-62, Non-Small Cell Lung Cancer, Table 2
Method: as §1

HOP-92 = experiment: NCI 60 growth inhibition; assay type: cell-based, human; conditions: Homo sapiens; HOP-92, Non-Small Cell Lung Cancer, Table 2
Method: as §1

HS 578T = experiment: NCI 60 growth inhibition; assay type: cell-based, human; conditions: Homo sapiens, Breast Cancer, Table 2
Method: as §1

HT29 = experiment: NCI 60 growth inhibition; assay type: cell-based, human; conditions: Homo sapiens; HT-29, Colon Cancer, Table 2
Method: as §1

IGROV1 = experiment: NCI 60 growth inhibition; assay type: cell-based, human; conditions: Homo sapiens, IGROV-1; IGROV1, Ovarian Cancer, Table 2
Method: as §1

K-562 = experiment: NCI 60 growth inhibition; assay type: cell-based, human; conditions: Homo sapiens, K562; K-562, Leukemia, Table 2
Method: as §1

M14 = experiment: NCI 60 growth inhibition; assay type: cell-based, human; conditions: Homo sapiens; M14, Melanoma, Table 2
Method: as §1

MCF7 = experiment: NCI 60 growth inhibition; assay type: cell-based, human; conditions: Homo sapiens; MCF7, Breast Cancer, Table 2
Method: as §1

MDA-MB-231/ATCC = experiment: NCI 60 growth inhibition; assay type: cell-based, human; conditions: Homo sapiens, Breast Cancer, Table 2
Method: as §1

MDA-MB-435 = experiment: NCI 60 growth inhibition; assay type: cell-based, human; conditions: Homo sapiens; MDA-MB-435, Melanoma, Table 2
Method: as §1

NCI-H226 = experiment: NCI 60 growth inhibition; assay type: cell-based, human; conditions: Homo sapiens; NCI-H226, Non-Small Cell Lung Cancer, Table 2
Method: as §1

NCI-H23 = experiment: NCI 60 growth inhibition; assay type: cell-based, human; conditions: Homo sapiens; NCI-H23, Non-Small Cell Lung Cancer, Table 2
Method: as §1

NCI-H460 = experiment: NCI 60 growth inhibition; assay type: cell-based, human; conditions: Homo sapiens; NCI-H460, Non-Small Cell Lung Cancer, Table 2
Method: as §1

NCI-H522 = experiment: NCI 60 growth inhibition; assay type: cell-based, human; conditions: Homo sapiens; NCI-H522, Non-Small Cell Lung Cancer, Table 2
Method: as §1

OVCAR-3 = experiment: NCI 60 growth inhibition; assay type: cell-based, human; conditions: Homo sapiens; OVCAR-3, Ovarian Cancer, Table 2
Method: as §1

OVCAR-4 = experiment: NCI 60 growth inhibition; assay type: cell-based, human; conditions: Homo sapiens; OVCAR-4, Ovarian Cancer, Table 2
Method: as §1

RPMI-8226 = experiment: NCI 60 growth inhibition; assay type: cell-based, human; conditions: Homo sapiens; RPMI-8226, Leukemia, Table 2
Method: as §1

RXF 393 = experiment: NCI 60 growth inhibition; assay type: cell-based, human; conditions: Homo sapiens, RXF 393, RXF 393, Renal Cancer, Table 2
Method: as §1

SF-295 = experiment: NCI 60 growth inhibition; assay type: cell-based, human; conditions: Homo sapiens; SF-295, CNS Cancer, Table 2
Method: as §1

SK-MEL-28 = experiment: NCI 60 growth inhibition; assay type: cell-based, human; conditions: Homo sapiens; SK-MEL-28, Melanoma, Table 2
Method: as §1

SK-OV-3 = experiment: NCI 60 growth inhibition; assay type: cell-based, human; conditions: Homo sapiens; SK-OV-3, Ovarian Cancer, Table 2
Method: as §1

T-47D = experiment: NCI 60 growth inhibition; assay type: cell-based, human; conditions: Homo sapiens, T47D, Breast Cancer, Table 2
Method: as §1

U251 = experiment: NCI 60 growth inhibition; assay type: cell-based, human; conditions: Homo sapiens, U-251; U251, CNS Cancer, Table 2
Method: as §1

UACC-62 = experiment: NCI 60 growth inhibition; assay type: cell-based, human; conditions: Homo sapiens; UACC-62, Melanoma, Table 2
Method: as §1

UO-31 = experiment: NCI 60 growth inhibition; assay type: cell-based, human; conditions: Homo sapiens; UO-31, Renal Cancer, Table 2
Method: as §1

[1] = test system: NCI panel of 60 human cancer cell lines; experiment: NCI 60 growth inhibition, ranges over groups of cell lines; assay type: cell-based; conditions: read-out: GI50
Method: as §1

[2] = 60 cell, several cell lines in the NCI 60 cell panel

SMILES	GI50 (786-0) [nM]	GI50 (A498) [nM]	GI50 (A549/ATCC) [nM]	GI50 (ACHN) [nM]	GI50 (BT-549) [nM]	GI50 (CAKI-1) [nM]	GI50 (COLO 205) [nM]	GI50 (DU-145) [nM]	GI50 (EKVX) [nM]	GI50 (HL-60(TB)) [nM]	GI50 (HOP-62) [nM]	GI50 (HOP-92) [nM]	GI50 (HS 578T) [nM]	GI50 (HT29) [nM]	GI50 (IGROV1) [nM]	GI50 (K-562) [nM]	GI50 (M14) [nM]	GI50 (MCF7) [nM]	GI50 (MDA-MB-231/ATCC) [nM]	GI50 (MDA-MB-435) [nM]	other results
C=C1C(=O)O[C@H]2[C@H]1CC/C(Cn1cc(-c3ccc(OC)cc3)nn1)=C\CC[C@@]1(C)O[C@@H]21 [JVM 4-24, (1aR,7aS,10aS,10bS,E)-5((4-(4-Methoxyphenyl)-1H-1,2,3-triazol-1-yl)methyl)-1a-methyl-8-methylene-2,3,6,7,7a,8,10a,10b-octahydrooxireno[2′,3′:9,10]cyclodeca[1,2-b]furan-9(1aH)-one]	1240	2350	10900	290	1310	1030	500	1110	2470	1170	10500	1130	7420	1230	1350	1300	1300	420	1440	1140	EC50 (M9 ENL1 cell line): 1400 nM; GI50 (NCI-H226): 1990 nM; GI50 (NCI-H23): 2060 nM; GI50 (NCI-H460): 8450 nM; GI50 (NCI-H522): 380 nM; GI50 (OVCAR-3): 560 nM; GI50 (OVCAR-4): 1520 nM; GI50 (RPMI-8226): 1870 nM; GI50 (RXF 393): 700 nM; GI50 (SF-295): 11000 nM; GI50 (SK-MEL-28): 820 nM; GI50 (SK-OV-3): 16300 nM; GI50 (T-47D): 1430 nM; GI50 (U251): 9450 nM; GI50 (UACC-62): 1350 nM; GI50 (UO-31): 1270 nM; GI50 [1, 2]: 200 to 990 nM
C=C1C(=O)O[C@H]2[C@H]1CC/C(Cn1cc(-c3ccccc3)nn1)=C\CC[C@@]1(C)O[C@@H]21 [JVM 3-74, (1aR,7aS,10aS,10bS,E)-1a-Methyl-8-methylene-5-((4-phenyl-1H-1,2,3-triazol-1-yl)methyl)-2,3,6,7,7a,8,10a,10b-octahydrooxireno[2′,3′:9,10]cyclodeca[1,2-b]furan-9(1aH)-one]	2630	7800	5880	940	2650	1280	1080	2190	6870	1490	7410	1420	9780	1790	6950	1760	1780	1080	2000	2370	EC50 (M9 ENL1 cell line): 1900 nM; GI50 (NCI-H226): 4600 nM; GI50 (NCI-H23): 5380 nM; GI50 (NCI-H460): 7740 nM; GI50 (NCI-H522): 810 nM; GI50 (OVCAR-3): 1400 nM; GI50 (OVCAR-4): 3220 nM; GI50 (RPMI-8226): 1710 nM; GI50 (RXF 393): 1550 nM; GI50 (SF-295): 7890 nM; GI50 (SK-MEL-28): 1060 nM; GI50 (SK-OV-3): 9950 nM; GI50 (T-47D): 1300 nM; GI50 (U251): 7960 nM; GI50 (UACC-62): 1870 nM; GI50 (UO-31): 870 nM; GI50 [1, 2]: 200 to 990 nM
C=C1C(=O)O[C@H]2[C@H]1CC/C(Cn1cc(-c3cccc(Cl)c3)nn1)=C\CC[C@@]1(C)O[C@@H]21 [JVM 4-25, (1aR,7aS,10aS,10bS,E)-5((4-(3-Chlorophenyl)-1H-1,2,3-triazol-1-yl)methyl)-1a-methyl-8-methylene-2,3,6,7,7a,8,10a,10b-octahydrooxireno[2′,3′:9,10]cyclodeca[1,2-b]furan-9(1aH)-one]	500	1520	1790	180	770	860	410	1000	1570	330	1940	250	2260	510	730	400	790	310	1090	590	GI50 (NCI-H226): 1710 nM; GI50 (NCI-H23): 1580 nM; GI50 (NCI-H460): 2130 nM; GI50 (NCI-H522): 290 nM; GI50 (OVCAR-3): 470 nM; GI50 (OVCAR-4): 1090 nM; GI50 (RPMI-8226): 500 nM; GI50 (RXF 393): 550 nM; GI50 (SF-295): 3410 nM; GI50 (SK-MEL-28): 350 nM; GI50 (SK-OV-3): 3670 nM; GI50 (T-47D): 830 nM; GI50 (U251): 1610 nM; GI50 (UACC-62): 620 nM; GI50 (UO-31): 1080 nM; GI50 ([1]; all the cell lines in the leukemia sub-panel): 100 to 500 nM; GI50 ([1]; most of the solid tumor cell lines in the panel): 160 to 990 nM

Source: patent publication US10428082B2, “Triazole derivatives of melampomagnolide B and methods of use thereof” (BioVentures, LLC, priority 2016, dated 2019)
